# In article PMC5268738, “A sequential multi-target Mps1 phosphorylation cascade promotes spindle checkpoint signaling” (eLife, 2017):
# How the values were obtained:
# [1] = tested on: HeLa Tet-On cells; assay: mitotic index by flow cytometry, Bub1-depleted cells; type: cell-based, human; details: partial Bub1 depletion, BI 2536 1 µM, nocodazole; n = 3; as shown previously (Jia et al., 2016)
# Description: (§1) HeLa Tet-On cells were initially purchased from Clontech (Mountain View, CA), and were cultured in Dulbecco’s Modified Eagle Medium (DMEM, Invitrogen, Carlsbad, CA) supplemented with 10% fetal bovine serum and 2 mM L-glutamine. The cells were authenticated by genome sequencing and metaphase chromosome spread, and were routinely checked by 4',6-diamidino-2-phenylindole (DAPI) staining to ascertain that they were free of mycoplasma contamination. For G1/S synchronization, cells were treated with 2 mM thymidine (Sigma, St. Louis, MO) for 14–16 hr. For mitotic arrest, cells were treated with 330 nM or 1 µM nocodazole (Sigma) or 100 nM taxol (Sigma) for 12–14 hr. Other chemicals used in this study were: RO3306 (Sigma) at 20 µM, BI 2536 (Selleck Chemicals, Houston, TX) at 1 µM, MG132 (Selleck Chemicals) at 10 µM, okadaic acid (LC lab, Woburn, MA) at 500 nM, and reversine (Cayman Chemical, Ann Arbor, MI) at 1 µM.
# For RNAi experiments, cells were transfected with siRNA oligonucleotides (Dharmacon, Lafayette, CO) using Lipofectamine RNAiMAX (Invitrogen) and harvested at 24–72 hr after transfection. The sequences of the siRNAs were (from 5’ to 3’): siBub1-c, […] […]
# Cells were synchronized at G1/S with thymidine and released into fresh medium containing 330 nM nocodazole for 13 hr before being harvested. […] The samples were analyzed on a FACSCalibur flow cytometer (BD Biosciences). […]
# [2] = tested on: APC/C^Cdc20; assay: APC/C^Cdc20 inhibition by MCC components (securin ubiquitination assay); type: biochemical, Xenopus APC/C, human Cdc20; details: Bub1–Mad1 mixture, Cdc20^ΔN60, Mad2^Mono, BubR1^N; reversine 10 μM where used
# [3] = tested on: N-terminal fragment of Cdc20 (residues 1–170, Cdc20^N); assay: in vitro pull-down of Mps1-treated Mad1^E–Mad2 by Cdc20^N beads; type: binding, human; details: Ni^2+ beads with Cdc20^N170-His6; Mad1 pre-treated with kinase domain of Mps1; anti-Mad1 blot
# Description: Expression of Cdc20-His6 proteins containing the N-terminal regions of Cdc20 was induced by 1 mM isopropyl β-D-1-thiogalactopyranoside (IPTG) at 37 °C for 6 h. Harvested pellets were lysed in denaturing lysis buffer (100 mM NaH2PO4, 10 mM Tris-HCl, pH 8.0, 8 M Urea), and incubated overnight by gentle rocking at room temperature. After centrifugation, the supernatants were incubated with pre-equilibrated Ni^2+-NTA beads (Qiagen). Protein-bound beads were washed with 15 volumes of denaturing wash buffer (100 mM NaH2PO4, 10 mM Tris-HCl, pH 6.3, 8 M Urea). The proteins were then eluted with denaturing elution buffer (100 mM NaH2PO4, 10 mM Tris-HCl, pH 4.5, 8 M Urea). The eluted proteins were then dialyzed into the storage buffer (50 mM Tris, pH 8.0, 200 mM NaCl, 5% glycerol, 1 mM β-mercaptoethanol). […]
# For kinase assays, 1 μM Cdc20^ΔN60, 40 μM Mad1^E–Mad2, or 400 nM Bub1^ΔK–Bub3 was incubated with 40 nM Bub1, 500 nM Mps1, and/or 50 nM Cdk1–Cyclin B1 at room temperature for 30 min in the kinase buffer (25 mM Tris-HCl, pH 7.7, 100 mM NaCl, 10 mM MgCl2, 5 mM NaF, 20 mM β-glycerophosphate, 0.1 mM Na3VO4 and 1 mM DTT) supplemented with 1 mM ATP. The reaction mixtures were stopped with the appropriate kinase inhibitors for further protein-binding assays, or quenched with the SDS loading buffer and analyzed by Coomassie blue staining or Western blotting. […]
# [4] = tested on: Bub1 S459 phosphorylation in HeLa cells; details: nocodazole and MG132; reversine 1 µM
# Description: as §1
# [5] = tested on: HeLa cells; assay: mitotic arrest by Mis12–Mad1 fusion proteins (mitotic index); type: cell-based, human; details: no spindle poison
# Description: Internal deletion mutants were constructed with overlapping extension polymerase chain reaction (PCR). Point mutations were introduced with QuikChange Lightening Site-Directed Mutagenesis kit (Agilent Technologies, Santa Clara, CA). All plasmids were verified by sequencing. Plasmid transfection was performed with the Effectene reagent (Qiagen, German Town, MD) according to the manufacturer’s instructions.
# […] For Plk1 inhibition, BI 2536 was added 1 hr prior to harvest. Collected cells were washed with PBS and fixed with pre-chilled 70% ethanol at −20°C overnight. After being washed with PBS, the fixed cells were permeabilized with 0.2% Triton X-100 in PBS for 20 min. Cells were then incubated with the anti-MPM2 antibody (1:100, Millipore) in PBS containing 1% BSA for 2 hr. After being washed with PBS, cells were incubated with fluorescent secondary antibodies (Invitrogen) in PBS containing 1% BSA for 30 min. After being washed with PBS, cells were stained with 20 μg/ml propidium iodide (Sigma) in PBS containing 200 μg/ml RNase (Qiagen). All staining steps were performed at room temperature. The samples were analyzed on a FACSCalibur flow cytometer (BD Biosciences). Data were processed with the FlowJo software. The mitotic index was defined as the percentage of cells that had 4N DNA content and were also positive for MPM2 staining. […]
compound,measurement,setting,value
"CC[C@@H]1C(=O)N(C)c2cnc(Nc3ccc(C(=O)NC4CCN(C)CC4)cc3OC)nc2N1C1CCCC1 [BI 2536, reference compound]",effect of Plk1 inhibition with partial depletion of Bub1 on the spindle checkpoint (in words),[1],synergistically inactivated the spindle checkpoint and reduced nocodazole-triggered mitotic arrest
"c1nc2nc(Nc3ccc(N4CCOCC4)cc3)nc(NC3CCCCC3)c2[nH]1 [reversine, reference compound]",APC/C^Cdc20 inhibition by the MCC mixture with Bub1–Mad1 mixture (in words),[2],greatly weakened APC/C^Cdc20 inhibition by the MCC mixture
same,binding of Mps1-treated Mad1^E–Mad2 to Cdc20^N (in words),[3],greatly reduced this interaction
same,Bub1 S459 phosphorylation in mitosis (in words),[4],reduced
T716A: Mis12–Mad1 with T716A mutation,mitotic arrest by Mis12–Mad1 fusion protein (in words),[5],abrogated the function of Mis12–Mad1 more strongly than simultaneously mutating the 13 sites outside of the CTD
